{
  "source": "patent US20230416205A1",
  "about": "“COMPOUNDS, COMPOSITIONS, AND METHODS” (Denali Therapeutics Inc, priority 2020, published 2023)",
  "test_system": "NLRP3",
  "assay": "IL-1β secretion assay in PMA-differentiated, LPS/nigericin-stimulated THP-1 cells (384-well, ELISA read-out)",
  "assay_type": "cell-based, human",
  "in_short": "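Secreted IL-1β quantified by capture ELISA from supernatants of PMA-differentiated THP-1 cells (30K per well). Sequence: LPS 25 ng/mL priming 2 h, compound 1 h, nigericin 2 h; dose-responses normalized between high (LPS plus 5 μM nigericin) and low (LPS alone) controls.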",
  "key": {"[1]": {"details": "Homo sapiens, THP-1, IL-1β secretion, PMA-differentiated THP-1 cells, LPS then nigericin stimulation, ELISA read at 450 nm, read-out: Activity"}, "[2]": {"details": "Homo sapiens, THP-1, Table 4, IL-1β secretion, LPS/nigericin-stimulated THP-1 cells, read-out: IC50"}},
  "note": "Read-outs that look alike come from different tables or passages of the source.",
  "data": [
    {"smiles": "O=C(CN1CC2(CC2)c2nc(C(F)(F)F)ccc2C1=O)Nc1ncccn1", "note": "[Example 31, 2-[5-oxo-2-(trifluoromethyl)spiro[7H-1,6-naphthyridine-8,1′-cyclopropane]-6-yl]-N-pyrimidin-2-ylacetamide]", "values": [
      {"measurement": "IC50", "setting": "[1]", "value": "< 10", "unit": "µM"},
      {"measurement": "IC50", "setting": "[2]", "value": 2.41, "unit": "µM"}
    ]},
    {"smiles": "O=C(CN1CC2(CCC2)c2cc(Br)ccc2C1=O)Nc1ncccn1", "note": "[Example 32, 2-(6-bromo-1-oxo-spiro[3H-isoquinoline-4,1′-cyclobutane]-2-yl)-N-pyrimidin-2-yl-acetamide]", "values": [
      {"measurement": "IC50", "setting": "[1]", "value": "< 10", "unit": "µM"},
      {"measurement": "IC50", "setting": "[2]", "value": 1.95, "unit": "µM"}
    ]},
    {"smiles": "O=C(CN1CC2(CC2)c2cc(OC(F)F)ccc2C1=O)Nc1ncccn1", "note": "[Example 33, N-(pyrimidin-2-yl)-2-[6-(difluoromethoxy)-1-oxospiro[3H-isoquinoline-4,1′-cyclopropane]-2-yl]acetamide]", "values": [
      {"measurement": "IC50", "setting": "[1]", "value": "< 10", "unit": "µM"},
      {"measurement": "IC50", "setting": "[2]", "value": 1.28, "unit": "µM"}
    ]},
    {"smiles": "O=C(CN1CC2(CC2)c2cc(C3CC3)ccc2C1=O)Nc1ncc(Cl)cn1", "note": "[Example 34, N-(5-chloropyrimidin-2-yl)-2-(6-cyclopropyl-1-oxo-spiro[3H-isoquinoline-4,1′-cyclopropane]-2-yl)acetamide]", "values": [
      {"measurement": "IC50", "setting": "[1]", "value": "< 10", "unit": "µM"},
      {"measurement": "IC50", "setting": "[2]", "value": 0.137, "unit": "µM"}
    ]},
    {"smiles": "O=C(CN1CC2(CC2)c2c(ccc(C(F)(F)F)c2F)C1=O)Nc1ncc(F)cn1", "note": "[Example 35, 2-[5-fluoro-1-oxo-6-(trifluoromethyl)spiro[3H-isoquinoline-4,1′-cyclopropane]-2-yl]-N-(5-fluoropyrimidin-2-yl)acetamide]", "values": [
      {"measurement": "IC50", "setting": "[1]", "value": "< 10", "unit": "µM"},
      {"measurement": "IC50", "setting": "[2]", "value": 0.366, "unit": "µM"}
    ]},
    {"smiles": "O=C(CN1CC2(CC2)c2cc(Br)ccc2C1=O)Nc1ccc(OC(F)F)cn1", "note": "[Example 36, 2-(6-bromo-1-oxo-spiro[3H-isoquinoline-4,1′-cyclopropane]-2-yl)-N-[5-(difluoromethoxy)-2-pyridyl]acetamide]", "values": [
      {"measurement": "IC50", "setting": "[1]", "value": "< 10", "unit": "µM"},
      {"measurement": "IC50", "setting": "[2]", "value": 2.72, "unit": "µM"}
    ]},
    {"smiles": "O=Cc1cnc(NC(=O)CN2CC3(CC3)c3cc(Br)ccc3C2=O)c(F)c1", "note": "[Example 37, 2-(6-bromo-1-oxo-spiro[3H-isoquinoline-4,1′-cyclopropane]-2-yl)-N-(3-fluoro-5-formyl-2-pyridyl)acetamide]", "values": [
      {"measurement": "IC50", "setting": "[1]", "value": "< 10", "unit": "µM"},
      {"measurement": "IC50", "setting": "[2]", "value": 1.32, "unit": "µM"}
    ]},
    {"smiles": "O=C(CN1CC2(CC2)c2cc(Br)ccc2C1=O)Nc1ncc(F)cc1F", "note": "[Example 38, 2-(6-bromo-1-oxo-spiro[3H-isoquinoline-4,1′-cyclopropane]-2-yl)-N-(3,5-difluoro-2-pyridyl)acetamide]", "values": [
      {"measurement": "IC50", "setting": "IL-1β secretion, PMA-differentiated THP-1 cells, LPS then nigericin stimulation, ELISA read at 450 nm, read-out: Activity", "value": "< 10", "unit": "µM"},
      {"measurement": "IC50", "setting": "Table 4, IL-1β secretion, LPS/nigericin-stimulated THP-1 cells, read-out: IC50", "value": 0.449, "unit": "µM"}
    ]},
    {"smiles": "O=C(CN1CC2(CC2)c2c(ccc(Br)c2F)C1=O)Nc1ncccn1", "note": "[Example 39, 2-(6-bromo-5-fluoro-1-oxo-spiro[3H-isoquinoline-4,1′-cyclopropane]-2-yl)-N-(pyrimidin-2-yl)acetamide]", "values": [
      {"measurement": "IC50", "setting": "[1]", "value": "< 10", "unit": "µM"},
      {"measurement": "IC50", "setting": "[2]", "value": 0.09, "unit": "µM"}
    ]},
    {"smiles": "O=C(CN1CC2(CC2)c2c(F)cccc2C1=O)Nc1ncccn1", "note": "[Example 40, 2-(5-fluoro-1-oxo-spiro[3H-isoquinoline-4,1′-cyclopropane]-2-yl)-N-(pyrimidin-2-yl)acetamide]", "values": [
      {"measurement": "IC50", "setting": "[1]", "value": "< 10", "unit": "µM"},
      {"measurement": "IC50", "setting": "[2]", "value": 8.78, "unit": "µM"}
    ]},
    {"smiles": "O=C(CN1CC2(CC2)c2c(ccc(Br)c2F)C1=O)Nc1ncc(F)cn1", "note": "[Example 41, 2-(6-bromo-5-fluoro-1-oxo-spiro[3H-isoquinoline-4,1′-cyclopropane]-2-yl)-N-(5-fluoropyrimidin-2-yl)acetamide]", "values": [
      {"measurement": "IC50", "setting": "[1]", "value": "< 10", "unit": "µM"},
      {"measurement": "IC50", "setting": "[2]", "value": 0.068, "unit": "µM"}
    ]},
    {"smiles": "O=C(CN1CC2(CC2)c2c(F)cccc2C1=O)Nc1ncc(F)cn1", "note": "[Example 42, 2-(5-fluoro-1-oxo-spiro[3H-isoquinoline-4,1′-cyclopropane]-2-yl)-N-(5-fluoropyrimidin-2-yl)acetamide]", "values": [
      {"measurement": "IC50", "setting": "[1]", "value": "< 10", "unit": "µM"},
      {"measurement": "IC50", "setting": "[2]", "value": 5.24, "unit": "µM"}
    ]},
    {"smiles": "O=C(CN1CC2(CC2)c2cc(Br)ccc2C1=O)Nc1ccc2cn[nH]c2c1", "note": "[Example 43, 2-(6-bromo-1-oxo-spiro[3H-isoquinoline-4,1′-cyclopropane]-2-yl)-N-(1H-indazol-6-yl)acetamide]", "values": [
      {"measurement": "IC50", "setting": "[1]", "value": "< 10", "unit": "µM"},
      {"measurement": "IC50", "setting": "[2]", "value": 0.368, "unit": "µM"}
    ]},
    {"smiles": "O=C(CN1CC2(CC2)c2cc(Br)ccc2C1=O)Nc1ccc2cc[nH]c2c1", "note": "[Example 44, 2-(6-bromo-1-oxospiro[3H-isoquinoline-4,1′-cyclopropane]-2-yl)-N-(1H-indol-6-yl)acetamide]", "values": [
      {"measurement": "IC50", "setting": "[1]", "value": "< 10", "unit": "µM"},
      {"measurement": "IC50", "setting": "[2]", "value": 1.26, "unit": "µM"}
    ]}
  ]
}
